Results published in US8076352B2, “Administration of carboline derivatives useful in the treatment of cancer and other diseases” (PTC Therapeutics, Inc., priority 2004, dated 2011).

Test system: hypoxia-inducible endogenous VEGF expression in HeLa cells
Assay: Hypoxia-inducible endogenous VEGF expression, VEGF ELISA of conditioned media (dose-response EC50)
Assay type: cell-based
Details: Homo sapiens, HeLa cells under hypoxic conditions
Procedure, shortened: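 Secreted VEGF was quantified by ELISA against a per-assay standard curve after HeLa cells spent 24-48 h in 1% O2, 5% CO2, N2 balance with or without compound. Across a series of, e.g., seven concentrations, percentage inhibition (max 100%, min 0%) gave EC50 and CC50 values.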

Compound	EC50
COc1ccc(C2c3[nH]c4ccc(C)cc4c3CCN2c2ncccn2)cc1 (stereo not drawn) [Compound 342]	40 to 200 nM
CC(C)OC(=O)N1CCc2c([nH]c3ccc(Cl)cc23)C1c1cccc(Cl)c1 (stereo not drawn) [Compound 87]	8 to 40 nM
COC(=O)c1ccc(C2c3[nH]c4ccc(Cl)cc4c3CCN2C(=O)Oc2ccc(F)cc2)cc1 (stereo not drawn) [Compound 395]	< 8 nM
COc1ccc2[nH]c3c(c2c1)CCNC3c1cccnc1 (stereo not drawn) [Compound 324]	> 1000 nM
CCOC(=O)N1CCc2c([nH]c3ccc(Br)cc23)C1Cc1ccccc1 (stereo not drawn) [Compound 211]	200 to 1000 nM
Brc1ccc2[nH]c3c(c2c1)CCNC3Cc1ccccc1 (stereo not drawn) [Compound 252]	> 1000 nM
CCOC(=O)N1CCc2c([nH]c3ccc(Br)cc23)C1c1cccc(Cl)c1 (stereo not drawn) [Compound 16]	< 8 nM
COC(=O)N1CCc2c([nH]c3ccc(OCc4ccccc4)cc23)C1c1ccccc1 (stereo not drawn) [Compound 293]	> 1000 nM
CCOC(=O)N1CCc2c([nH]c3ccc(Cl)cc23)C1c1ccc(OCCN2CCOCC2)cc1 (stereo not drawn) [Compound 279, 6-Chloro-1-[4-(2-morpholin-4-yl-ethoxy)-phenyl]-1,3,4,9-tetrahydro-b-carboline-2-carboxylic acid ethyl ester]	< 8 nM
COc1ccc(C2c3[nH]c4ccc(Cl)cc4c3CCN2C(=O)NCc2ccccc2)cc1 (stereo not drawn) [Compound 188]	200 to 1000 nM
Fc1cc(F)cc(C2NCCc3c2[nH]c2ccc(Br)cc32)c1 (stereo not drawn) [Compound 155]	40 to 200 nM
COc1ccc(C2c3[nH]c4ccccc4c3CCN2C(=S)Nc2cccc(F)c2)cc1 (stereo not drawn) [Compound 308]	> 1000 nM
COc1ccc(C2c3[nH]c4ccc(Cl)cc4c3CCN2C(=O)Nc2cccc(F)c2)cc1 (stereo not drawn) [Compound 160]	40 to 200 nM
CC(C)OC(=O)N1CCc2c([nH]c3ccc(Cl)cc23)C1c1ccc(C(C)C)cc1 (stereo not drawn) [Compound 24]	< 8 nM
Clc1cccc(C2NCCc3c2[nH]c2ccc(Br)cc32)c1Cl (stereo not drawn) [Compound 151]	40 to 200 nM
CCOC(=O)N1CCc2c([nH]c3ccc(Br)cc23)C1c1cccc(C(F)(F)F)c1 (stereo not drawn) [Compound 32]	< 8 nM
CC(C)OC(=O)N1CCc2c([nH]c3ccc(Cl)cc23)C1c1cccc(F)c1 (stereo not drawn) [Compound 90]	8 to 40 nM
Clc1ccc2[nH]c3c(c2c1)CCN(Cc1ccoc1)C3C1CCCCC1 (stereo not drawn) [Compound 271]	> 1000 nM
Oc1ccc(C2NCCc3c2[nH]c2ccc(Cl)cc32)cc1 (stereo not drawn) [Compound 296]	> 1000 nM
Fc1ccccc1C1NCCc2c1[nH]c1ccc(Cl)cc21 (stereo not drawn) [Compound 205]	200 to 1000 nM
Clc1cccc(C2NCCc3c2[nH]c2ccc(Cl)cc32)c1 (stereo not drawn) [Compound 198]	200 to 1000 nM
Clc1ccc2[nH]c3c(c2c1)CCN(Cc1ccccc1)C3c1c[nH]c2ccc(Br)cc12 (stereo not drawn) [Compound 273]	> 1000 nM
Cc1cccc2c3c([nH]c12)C(c1ccccc1)NCC3 (stereo not drawn) [Compound 326]	> 1000 nM
FC(F)(F)c1cccc(C2NCCc3c2[nH]c2ccc(Br)cc32)c1 (stereo not drawn) [Compound 207]	200 to 1000 nM
COC(=O)CCC(=O)N1CCc2c([nH]c3ccc(Cl)cc23)C1c1ccc(OC)cc1 (stereo not drawn) [Compound 369]	200 to 1000 nM
CCOC(=O)N1CCc2c([nH]c3ccc(Br)cc23)C1c1cc(F)ccc1F (stereo not drawn) [Compound 115]	8 to 40 nM
Oc1ccc(Cl)cc1C1NCCc2c1[nH]c1ccc(Br)cc21 (stereo not drawn) [Compound 381]	> 1000 nM
COC(=O)N1CCc2c([nH]c3ccc(Cl)cc23)C1c1ccc(Br)cc1 (stereo not drawn) [Compound 46]	8 to 40 nM
Clc1ccc2[nH]c3c(c2c1)CCNC3c1cccc(Cl)c1Cl (stereo not drawn) [Compound 168]	40 to 200 nM

Further lines, results first:

EC50	Compound
> 1000 nM	COc1ccc(C2NCCc3c2[nH]c2ccc(OCc4ccccc4)cc32)cc1 (stereo not drawn) [Compound 292]
200 to 1000 nM	CC(C)Oc1ccc(C2NCCc3c2[nH]c2ccc(Cl)cc32)cc1 (stereo not drawn) [Compound 224]
200 to 1000 nM	Clc1ccc2[nH]c3c(c2c1)CCNC3c1cccc(Br)c1 (stereo not drawn) [Compound 200]
> 1000 nM	Brc1ccc2[nH]c3c(c2c1)CCNC3c1ccc(OCc2ccccc2)cc1 (stereo not drawn) [Compound 232]
200 to 1000 nM	CCNC(=O)N1CCc2c([nH]c3ccc(Cl)cc23)C1c1ccc(OCc2ccccc2)cc1 (stereo not drawn) [Compound 221]
40 to 200 nM	Brc1ccc2[nH]c3c(c2c1)CCN(c1ncccn1)C3c1ccc(OCCN2CCOCC2)cc1 (stereo not drawn) [Compound 357]
8 to 40 nM	O=C(OCCCl)N1CCc2c([nH]c3ccc(Cl)cc23)C1c1cc(F)cc(F)c1 (stereo not drawn) [Compound 83]
> 1000 nM	COc1ccc2[nH]c3c(c2c1)CCNC3c1ccc(OCc2ccccc2)cc1 (stereo not drawn) [Compound 285]
> 1000 nM	c1ccc(COc2ccc3[nH]c4c(c3c2)CCNC4c2ccccc2)cc1 (stereo not drawn) [Compound 303]
< 8 nM	COc1ccc(C2c3[nH]c4ccc(Cl)cc4c3CCN2C(=O)OCC(C)C)cc1 (stereo not drawn) [Compound 30]
200 to 1000 nM	COCC(=O)N1CCc2c([nH]c3ccc(Cl)cc23)C1c1ccc(OC)cc1 (stereo not drawn) [Compound 376]
8 to 40 nM	Cc1ccc(C2c3[nH]c4ccc(Cl)cc4c3CCN2C(=O)OCCCl)cc1 (stereo not drawn) [Compound 48]
8 to 40 nM	CC(C)OC(=O)N1CCc2c([nH]c3ccc(Cl)cc23)C1c1ccc([N+](=O)[O-])cc1 (stereo not drawn) [Compound 56]
> 1000 nM	COc1cccc(C2NC(CO)Cc3c2[nH]c2ccccc32)c1 (stereo not drawn) [Compound 318]
200 to 1000 nM	CC(C)NC(=S)N1CCc2c([nH]c3ccc(Br)cc23)C1c1cccc(Cl)c1 (stereo not drawn) [Compound 202]
40 to 200 nM	COc1ccc(C2c3[nH]c4ccc(Cl)cc4c3CCN2C(=O)Nc2ccccc2OC)cc1 (stereo not drawn) [Compound 142]
40 to 200 nM	O=C(NC1CCCCC1)N1CCc2c([nH]c3ccc(Br)cc23)C1c1cccc(Cl)c1 (stereo not drawn) [Compound 140]
40 to 200 nM	CCOC(=O)N1CCc2c([nH]c3ccc(Cl)cc23)C1C1CCCCC1 (stereo not drawn) [Compound 145]
200 to 1000 nM	Fc1ccc(C2NCCc3c2[nH]c2ccc(Cl)cc32)cc1F (stereo not drawn) [Compound 215]
> 1000 nM	Cc1ccc(C2NCCc3c2[nH]c2ccc(F)cc32)cc1 (stereo not drawn) [Compound 255]
> 1000 nM	COCCOCC(=O)N1CCc2c([nH]c3ccc(Br)cc23)C1c1ccc(Br)cc1 (stereo not drawn) [Compound 241]
< 8 nM	CCOC(=O)N1CCc2c([nH]c3ccc(Br)cc23)C1c1ccc(OC)cc1 (stereo not drawn) [Compound 112]

Same assay, conditions: Homo sapiens, HeLa cells, hypoxic conditions (1% O2)

Compound	EC50
O=C(Oc1ccc(Cl)cc1)N1CCc2c([nH]c3ccc(Cl)cc23)C1c1ccc(OCCCI)cc1 (stereo not drawn) [Compound 617]	8 to 40 nM
CCOC(=O)N1CCc2c([nH]c3ccc(Br)cc23)C1c1ccc(C(=O)N2CCN(CCCN(C)C)CC2)cc1 (stereo not drawn) [Compound 560]	> 1000 nM
Clc1ccc2[nH]c3c(c2c1)CCNC3CCc1ccccc1 (stereo not drawn) [Compound 416]	< 8 nM
O=C(Oc1ccccc1Cl)N1CCc2c([nH]c3ccc(Cl)cc23)C1c1ccc(F)cc1 (stereo not drawn) [Compound 588]	40 to 200 nM
O=C(Oc1ccc(F)cc1)N1CCc2c([nH]c3ccc(Cl)cc23)C1c1ccc(OCCCCCCN2CCCC2)cc1 (stereo not drawn) [Compound 773]	< 8 nM
CCOC(=O)N1CCc2c([nH]c3ccc(Cl)cc23)C1c1ccc(C(=O)N2CCC(NC(C)=O)C2)cc1 (stereo not drawn) [Compound 561]	> 1000 nM
COc1ccc(OC(=O)N2CCc3c([nH]c4ccc(Cl)cc34)C2c2cnc(N(C)C)nc2)cc1 (stereo not drawn) [Compound 445]	8 to 40 nM
CC(C)(C)CC1NCCc2c1[nH]c1ccc(Cl)cc21 (stereo not drawn) [Compound 565]	> 1000 nM
COC(=O)c1ccc(C2c3[nH]c4ccc(Br)cc4c3CCN2C(=O)Oc2ccc(F)cc2)cc1 (stereo not drawn) [Compound 592]	< 8 nM
CSCCC1NCCc2c1[nH]c1ccc(Cl)cc21 (stereo not drawn) [Compound 497]	40 to 200 nM
O=C(Oc1ccc(F)cc1)N1CCc2c([nH]c3ccc(Cl)cc23)C1c1ccc(OCCCCN2CCOCC2)cc1 (stereo not drawn) [Compound 738]	< 8 nM

Second part, the compound after the results:

EC50	Compound
< 8 nM	O=C(Oc1ccc(F)cc1)N1CCc2c([nH]c3ccc(Br)cc23)C1c1ccc(C(F)(F)F)cc1 (stereo not drawn) [Compound 397]
< 8 nM	CCOC(=O)N1CCc2c([nH]c3ccc(Br)cc23)C1c1ccc(CNCCOC)cc1 (stereo not drawn) [Compound 420]
< 8 nM	COCCOc1ccc(C2c3[nH]c4ccc(Cl)cc4c3CCN2C(=O)Oc2ccccc2)cc1 (stereo not drawn) [Compound 436]
8 to 40 nM	Nc1ncc(C2c3[nH]c4ccc(Cl)cc4c3CCN2C(=O)Oc2ccc(Cl)cc2)cn1 (stereo not drawn) [Compound 457]
8 to 40 nM	CCOC(=O)Nc1ccc(C2c3[nH]c4ccc(Cl)cc4c3CCN2C(=O)Oc2ccc(Cl)cc2)cc1 (stereo not drawn) [Compound 467]
< 8 nM	O=C(Oc1ccc(Cl)cc1)N1CCc2c([nH]c3ccc(Cl)cc23)C1c1ccc(OCCCn2ccnn2)cc1 (stereo not drawn) [Compound 417]
> 1000 nM	CCOC(=O)N1CCc2c([nH]c3ccc(Cl)cc23)C1c1cccc(C(=O)N2CCN(CCOC)CC2)c1 (stereo not drawn) [Compound 562]
40 to 200 nM	CCOC(=O)N1CCc2c([nH]c3ccc(Cl)cc23)C1CCc1ccccc1 (stereo not drawn) [Compound 511]
< 8 nM	O=C(Oc1ccc(F)cc1)N1CCc2c([nH]c3ccc(Cl)cc23)C1c1ccc(OCCCCn2cncn2)cc1 (stereo not drawn) [Compound 743]

Same assay, conditions: Homo sapiens, HeLa cells, hypoxic conditions (1% O2, 5% CO2)

Compound	EC50
O=C(Oc1ccc(Cl)cc1)N1CCc2c([nH]c3ccc(Cl)cc23)C1c1ccc(OCCCN2CCN(CCO)CC2)cc1 (stereo not drawn) [Compound 942]	8 to 40 nM
CN1CCCC(COc2ccc(C3c4[nH]c5ccc(Cl)cc5c4CCN3C(=O)Oc3ccc(Cl)cc3)cc2)C1 (stereo not drawn) [Compound 966]	8 to 40 nM
COCCN(CCCOc1ccc(C2c3[nH]c4ccc(Cl)cc4c3CCN2C(=O)Oc2ccc(Cl)cc2)cc1)CCOC (stereo not drawn) [Compound 916]	< 8 nM
O=C(Oc1ccc(F)cc1)N1CCc2c([nH]c3ccc(Cl)cc23)C1c1ccc(OCCn2cncn2)cc1 (stereo not drawn) [Compound 834]	8 to 40 nM
O=C(Oc1ccc(F)cc1)N1CCc2c([nH]c3ccc(Cl)cc23)C1c1ccc(OCCCN2CCSCC2)cc1 (stereo not drawn) [Compound 991]	40 to 200 nM
CC(=O)N1CCN(CCCOc2ccc(C3c4[nH]c5ccc(Cl)cc5c4CCN3C(=O)Oc3ccc(Cl)cc3)cc2)CC1 (stereo not drawn) [Compound 903]	< 8 nM
O=C(Oc1ccc(Cl)cc1)N1CCc2c([nH]c3ccc(Cl)cc23)C1c1ccc(OCCNc2cccnc2)cc1 (stereo not drawn) [#843]	< 8 nM
